The source of these data is ChEMBL document CHEMBL1158932, “Cytotoxic pyridone alkaloids from the leaves of Piper aborescens” (1990).

In brackets after ≈: the same amount, converted by molar mass.

Common to all, as to format: functional
The test system of one assay is HT-29. The experiment in a line: Cytotoxicity against human HT-29 cells after 6 days by MTT assay. The note with it: HT-29, 144 h, read-out: ED50 (the source's name). A general note: Formazan colour is commonly taken as a measure of viable cells.
The test system of a further assay is A549. The assay is described as follows: Cytotoxicity against human A549 cells after 6 days by MTT assay. The note with it: A549, 144 h, read-out: ED50 (the source's name).
For another assay, the system named is KB. The experiment in a line: Cytotoxicity against human KB cells after 3 days by MTT assay. The note with it: 72 h, read-out: ED50 (the source's name).
In the next assay the test system is P388. The experiment in a line: Cytotoxicity against mouse P388 cells after 3 days by MTT assay. The note with it: P388, 72 h, read-out: ED50 (the source's name).

Regarding `COc1cc(CCC(=O)N2CCC=CC2=O)cc2c1OCO2`, the EC50 turned out to be 3.8 µg/mL (≈ 12.5 µM) with HT-29, 5.76 µg/mL (≈ 19 µM) with A549, 4.99 µg/mL (≈ 16.5 µM) in the assay on KB and 2.21 µg/mL (≈ 7.29 µM) in the assay on P388.
For the molecule `COc1cc(C2C(C(=O)N3CCC=CC3=O)[C@H](c3cc(OC)c(OC)c(OC)c3)[C@@H]2C(=O)N2CCC=CC2=O)cc(OC)c1OC` (stereo partly specified) [PIPLARTINE DIMER A], the EC50 with HT-29 was determined as 2.49 µg/mL (≈ 3.92 µM); in the assay on A549, 2.21 µg/mL (≈ 3.48 µM); in the assay with KB it was 3.9 µg/mL (≈ 6.14 µM); in the assay with P388, 3.06 µg/mL (≈ 4.82 µM).
With `COc1cc(/C=C/C(=O)N2CCC=CC2=O)cc(OC)c1OC` [PIPLARTINE], the EC50 with HT-29 came out at 0.45 µg/mL (≈ 1.42 µM); in the assay with A549 it was 0.6 µg/mL (≈ 1.89 µM); with KB, 1.8 µg/mL (≈ 5.67 µM); with P388, 0.9 µg/mL (≈ 2.84 µM).
In the case of `COc1cc(/C=C/C(=O)N2CCC=CC2=O)cc2c1OCO2`, the EC50 in the assay on HT-29 worked out at 2.15 µg/mL (≈ 7.14 µM); in the assay with A549, 2.57 µg/mL (≈ 8.53 µM); with KB, 2.62 µg/mL (≈ 8.7 µM); in the assay on P388 it was 0.43 µg/mL (≈ 1.43 µM).
